The text below walks through data of US20250051344A1, “BIFUNCTIONAL SELECTIVE DEGRADERS OF SMARCA2 AND THERAPEUTIC USES THEREOF” (Nurix Therapeutics, Inc., priority 2023, published 2025).

The target in one test is T1, SMARCA4 (Homo sapiens, UniProt P51532).
T1 construct: endogenous in cells
Briefly: Cellular degradation assay, SMARCA4 (Table 1). The test is classed as cell-based.

The target in another test is T2, SMARCA2 (Homo sapiens, UniProt P51531).
T2 construct: endogenous in cells
Briefly: SMARCA2 Cellular Degradation Assay (Western blot analysis on Jess platform). Format: cell-based. Conditions: for DC50 / Dmax: cellular degradation; for Fold Selectivity SMARCA4/2: ratio DC50 SMARCA4 / DC50 SMARCA2. The essentials: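 SMARCA2 remaining is given as percent of vehicle control, using actin-normalized, background-corrected electropherogram areas. Measurement was by Jess capillary immunoassay (anti-SMARCA2 with anti-β-actin) on 5 μg protein from RIPA/SDS lysates of tumor-derived cells.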

T2 sequence (P51531 whole entry, species assumed): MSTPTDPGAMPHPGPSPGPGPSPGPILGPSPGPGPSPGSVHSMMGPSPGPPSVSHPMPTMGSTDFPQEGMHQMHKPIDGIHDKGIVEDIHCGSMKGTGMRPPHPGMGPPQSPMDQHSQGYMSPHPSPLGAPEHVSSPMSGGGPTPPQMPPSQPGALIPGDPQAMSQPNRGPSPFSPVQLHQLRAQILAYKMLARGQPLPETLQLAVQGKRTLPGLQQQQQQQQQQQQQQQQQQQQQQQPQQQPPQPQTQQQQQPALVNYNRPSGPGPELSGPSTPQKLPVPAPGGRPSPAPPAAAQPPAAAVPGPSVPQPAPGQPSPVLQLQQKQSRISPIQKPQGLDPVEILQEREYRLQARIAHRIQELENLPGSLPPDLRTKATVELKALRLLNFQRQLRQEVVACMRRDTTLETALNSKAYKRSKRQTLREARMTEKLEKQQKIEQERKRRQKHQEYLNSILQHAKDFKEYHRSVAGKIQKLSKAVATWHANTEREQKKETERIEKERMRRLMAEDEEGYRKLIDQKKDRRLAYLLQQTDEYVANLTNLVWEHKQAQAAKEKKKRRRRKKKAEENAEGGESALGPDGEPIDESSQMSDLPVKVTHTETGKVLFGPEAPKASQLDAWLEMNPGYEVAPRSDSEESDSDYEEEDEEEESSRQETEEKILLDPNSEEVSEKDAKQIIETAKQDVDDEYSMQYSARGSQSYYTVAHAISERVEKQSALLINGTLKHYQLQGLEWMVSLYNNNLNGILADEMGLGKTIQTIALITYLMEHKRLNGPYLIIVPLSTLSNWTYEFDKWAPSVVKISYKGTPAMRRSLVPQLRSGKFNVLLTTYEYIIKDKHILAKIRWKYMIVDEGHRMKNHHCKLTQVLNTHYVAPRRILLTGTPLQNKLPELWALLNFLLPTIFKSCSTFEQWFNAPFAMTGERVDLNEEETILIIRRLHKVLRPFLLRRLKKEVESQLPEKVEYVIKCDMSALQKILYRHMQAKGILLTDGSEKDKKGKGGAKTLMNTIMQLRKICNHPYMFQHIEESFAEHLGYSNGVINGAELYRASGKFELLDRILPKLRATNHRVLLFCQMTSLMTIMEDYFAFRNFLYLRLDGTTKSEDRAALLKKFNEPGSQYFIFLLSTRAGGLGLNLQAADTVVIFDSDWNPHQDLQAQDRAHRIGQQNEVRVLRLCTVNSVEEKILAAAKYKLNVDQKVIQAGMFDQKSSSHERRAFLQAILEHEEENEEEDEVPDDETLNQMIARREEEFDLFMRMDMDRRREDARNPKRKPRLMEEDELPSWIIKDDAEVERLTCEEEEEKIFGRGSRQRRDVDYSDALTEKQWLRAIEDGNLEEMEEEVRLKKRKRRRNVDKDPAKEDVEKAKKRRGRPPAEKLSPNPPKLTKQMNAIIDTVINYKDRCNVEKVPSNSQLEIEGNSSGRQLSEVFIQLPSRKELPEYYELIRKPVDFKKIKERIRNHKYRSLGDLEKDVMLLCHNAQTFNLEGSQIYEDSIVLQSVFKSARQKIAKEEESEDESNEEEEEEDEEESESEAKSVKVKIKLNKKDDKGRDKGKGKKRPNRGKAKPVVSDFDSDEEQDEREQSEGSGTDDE
T1 sequence (P51532 whole entry, species assumed): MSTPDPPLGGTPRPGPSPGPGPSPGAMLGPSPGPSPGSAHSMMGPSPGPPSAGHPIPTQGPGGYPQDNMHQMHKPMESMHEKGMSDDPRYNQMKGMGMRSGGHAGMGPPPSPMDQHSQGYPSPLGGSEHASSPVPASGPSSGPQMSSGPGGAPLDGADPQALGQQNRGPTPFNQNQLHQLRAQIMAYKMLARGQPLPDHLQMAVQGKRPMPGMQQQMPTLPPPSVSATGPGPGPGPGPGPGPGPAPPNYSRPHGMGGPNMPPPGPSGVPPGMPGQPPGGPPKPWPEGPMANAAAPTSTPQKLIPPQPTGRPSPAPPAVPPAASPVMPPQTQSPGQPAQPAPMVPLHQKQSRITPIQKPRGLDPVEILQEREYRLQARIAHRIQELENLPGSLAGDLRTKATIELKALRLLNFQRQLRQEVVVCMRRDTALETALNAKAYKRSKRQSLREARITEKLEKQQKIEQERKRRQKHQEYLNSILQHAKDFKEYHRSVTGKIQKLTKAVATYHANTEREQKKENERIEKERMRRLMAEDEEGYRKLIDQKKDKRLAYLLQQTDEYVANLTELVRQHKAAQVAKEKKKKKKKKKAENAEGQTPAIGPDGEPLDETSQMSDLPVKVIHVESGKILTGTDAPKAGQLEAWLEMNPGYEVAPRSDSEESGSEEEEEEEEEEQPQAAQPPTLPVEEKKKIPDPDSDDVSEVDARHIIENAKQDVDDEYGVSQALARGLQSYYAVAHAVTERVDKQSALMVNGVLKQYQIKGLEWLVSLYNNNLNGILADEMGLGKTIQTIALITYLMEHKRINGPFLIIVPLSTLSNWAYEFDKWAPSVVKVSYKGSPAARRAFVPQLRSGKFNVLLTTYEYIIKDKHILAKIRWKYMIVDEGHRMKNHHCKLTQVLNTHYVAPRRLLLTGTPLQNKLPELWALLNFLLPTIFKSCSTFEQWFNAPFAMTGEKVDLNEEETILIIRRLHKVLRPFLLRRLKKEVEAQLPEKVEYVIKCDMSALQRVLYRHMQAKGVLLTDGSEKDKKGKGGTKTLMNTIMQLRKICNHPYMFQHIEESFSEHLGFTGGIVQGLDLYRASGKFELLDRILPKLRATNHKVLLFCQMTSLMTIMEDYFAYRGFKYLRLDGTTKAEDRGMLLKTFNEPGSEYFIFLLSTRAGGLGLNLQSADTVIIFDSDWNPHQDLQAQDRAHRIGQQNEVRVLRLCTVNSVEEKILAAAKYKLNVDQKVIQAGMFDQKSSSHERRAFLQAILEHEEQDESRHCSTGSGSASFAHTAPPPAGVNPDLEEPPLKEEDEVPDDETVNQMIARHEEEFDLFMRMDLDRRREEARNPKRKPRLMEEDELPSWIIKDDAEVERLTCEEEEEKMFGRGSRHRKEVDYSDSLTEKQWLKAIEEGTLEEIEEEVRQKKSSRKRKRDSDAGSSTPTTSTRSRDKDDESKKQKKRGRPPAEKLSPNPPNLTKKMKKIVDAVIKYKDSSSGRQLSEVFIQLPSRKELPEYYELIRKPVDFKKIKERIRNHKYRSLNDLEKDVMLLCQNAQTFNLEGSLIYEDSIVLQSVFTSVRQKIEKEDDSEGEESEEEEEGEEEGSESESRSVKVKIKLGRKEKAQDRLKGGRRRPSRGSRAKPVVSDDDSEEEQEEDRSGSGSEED

At SMARCA4, `C[C@@H](C1CCN(c2ccc([C@H]3CCC(=O)NC3=O)cn2)CC1)N1CC2(CN(C(=O)C3(c4ccccc4)CCN(c4cnnc(-c5ccccc5O)c4)CC3)C2)C1` (racemic) [Example 141, (3RS&)-3-(6-{4-[(1RS)-1-(6-{1-[6-(2-hydroxyphenyl)pyridazin-4-yl]-4-phenylpiperidine-4-carbonyl}-2,6-diazaspiro[3.3]heptan-2-yl)ethyl]piperidin-1-yl}pyridin-3-yl)piperidine-2,6-dione] returned a DC50 of 34.9 nM and a Dmax of 71.5%. Also, at SMARCA2, half-maximal degradation (DC50) was put at 6.59 nM, the Dmax was found to be 87% and the “Fold Selectivity SMARCA4/2” value was determined as 5.
On the same counts, the results for `CN(CC1(c2ccccc2)CCN(c2cnnc(-c3ccccc3O)c2)CC1)C1CCN(C(=O)C2CCN(c3ccc(C4CCC(=O)NC4=O)cc3)CC2)CC1` (racemic) [Example 142, rac-(r)-3-(4-(4-(4-(((1-(6-(2-hydroxyphenyl)pyridazin-4-yl)-4-phenylpiperidin-4-yl)methyl)(methyl)amino)piperidine-1-carbonyl)piperidin-1-yl)phenyl)piperidine-2,6-dione] are 84.8 nM, 60%, 24.5 nM, 69.9% and 3.
On SMARCA4, `CN(CC1(c2ccccc2)CCN(c2cnnc(-c3ccccc3O)c2)CC1)C1CCN(C(=O)CN2CCC(c3ccc(C4CCC(=O)NC4=O)cc3)CC2)CC1` (racemic) [Example 143, rac-(r)-3-(4-(1-(2-(4-(((1-(6-(2-hydroxyphenyl)pyridazin-4-yl)-4-phenylpiperidin-4-yl)methyl)(methyl)amino)piperidin-1-yl)-2-oxoethyl)piperidin-4-yl)phenyl)piperidine-2,6-dione] registered a DC50 of 161 nM and a Dmax of 66.7%. Also, on SMARCA2, it took 13.3 nM to reach half-maximal degradation (DC50), the Dmax is 86.5% and the “Fold Selectivity SMARCA4/2” value worked out at 12.
The like results for `O=C1CC[C@H](c2ccc(N3CCC(CCN4CC5CCC(C4)C5C(=O)NCC4(c5ccccc5)CCN(c5cnnc(-c6ccccc6O)c5)CC4)CC3)cc2)C(=O)N1` (mixture of isomers) [Example 144, rac-3-(2-(1-(4-((r)-2,6-dioxopiperidin-3-yl)phenyl)piperidin-4-yl)ethyl)-n-((1-(6-(2-hydroxyphenyl)pyridazin-4-yl)-4-phenylpiperidin-4-yl)methyl)-3-azabicyclo[3.2.1]octane-8-carboxamide] were, in that order, 13.4 nM, 80.7%, 1.36 nM, 93.7% and 10.
The like results for `COCCN(CC1(c2ccccc2)CCN(c2cnnc(-c3ccccc3O)c2)CC1)C(=O)C1CCN(CCC2CCN(c3ccc([C@@H]4CCC(=O)NC4=O)cc3)CC2)CC1` (racemic) [Example 145, rac-(r)-1-(2-(1-(4-(2,6-dioxopiperidin-3-yl)phenyl)piperidin-4-yl)ethyl)-n-((1-(6-(2-hydroxyphenyl)pyridazin-4-yl)-4-phenylpiperidin-4-yl)methyl)-n-(2-methoxyethyl)piperidine-4-carboxamide] were, in that order, 9.67 nM, 84.5%, 1.69 nM, 92.8% and 6.
On the same counts, the results for `CN(CC1(c2ccccc2)CCN(c2cnnc(-c3ccccc3O)c2)CC1)C(=O)C1CCN(CCC2CCN(c3ccc([C@H]4CCC(=O)NC4=O)cc3)CC2)C2(CCC2)C1` (mixture of isomers) [Example 146, rac-5-(2-(1-(4-((r)-2,6-dioxopiperidin-3-yl)phenyl)piperidin-4-yl)ethyl)-n-((1-(6-(2-hydroxyphenyl)pyridazin-4-yl)-4-phenylpiperidin-4-yl)methyl)-n-methyl-5-azaspiro[3.5]nonane-8-carboxamide] are 21.9 nM, 72.8%, 5.57 nM, 83% and 4.
At SMARCA4, `CC(N[C@H]1CC[C@@H](NC(=O)C2(c3ccccc3)CCN(c3cnnc(-c4ccccc4O)c3)CC2)CC1)C1CCN(c2ccc([C@H]3CCC(=O)NC3=O)cn2)CC1` (mixture of isomers) [Example 147, 1-[6-(2-hydroxyphenyl)pyridazin-4-yl]-4-phenyl-N-[(1,4s)-4-{[1-(1-{5-[(3rs)-2,6-dioxopiperidin-3-yl]pyridin-2-yl}piperidin-4-yl)ethyl]amino}cyclohexyl]piperidine-4-carboxamide] yielded a DC50 of 47.3 nM and a Dmax of 64.5%. At SMARCA2, half-maximal degradation (DC50) was put at 13.7 nM, the Dmax was found to be 76.8% and the “Fold Selectivity SMARCA4/2” value came out at 3.
On SMARCA4, `O=C1CCC(c2ccc(N3C[C@H]4CN(CC(=O)N5CCC6(CC5)CN(C(=O)C5(c7ccccc7)CCN(c7cnnc(-c8ccccc8O)c7)CC5)C6)C[C@@H]4C3)cc2)C(=O)N1` (mixture of isomers) [Example 150, (3RS)-3-{4-[(3aR,6aR)-5-[2-(2-{1-[6-(2-hydroxyphenyl)pyridazin-4-yl]-4-phenylpiperidine-4-carbonyl}-2,7-diazaspiro[3.5]nonan-7-yl)-2-oxoethyl]-octahydropyrrolo[3,4-c]pyrrol-2-yl]phenyl}piperidine-2,6-dione] yielded a Dmax of 50.6%. For the same compound, at SMARCA2, half-maximal degradation (DC50) was put at 22.6 nM, the Dmax amounted to 73.9% and the “Fold Selectivity SMARCA4/2” value is listed as 442.
Consider `CN(C(=O)C1(c2ccccc2)CCN(c2cnnc(-c3ccccc3O)c2)CC1)C1CCN(CCC2CCN(c3ccc(C4CCC(=O)NC4=O)c(F)c3)CC2)CC1` (racemic) [Example 151, rac-N-{1-[2-(1-{4-[(3R)-2,6-dioxopiperidin-3-yl]-3-fluorophenyl}piperidin-4-yl)ethyl]piperidin-4-yl}-1-[6-(2-hydroxyphenyl)pyridazin-4-yl]-N-methyl-4-phenylpiperidine-4-carboxamide], for which, on SMARCA4, half-maximal degradation (DC50) was put at 157 nM and the Dmax was determined as 59.6%. Besides, on SMARCA2, the DC50 is 3.57 nM, the Dmax is 92.3% and the “Fold Selectivity SMARCA4/2” value stood at 44.
On to `O=C1CCC(c2ccc(N3CCOC4(CCN(CC(=O)N5CCC6(CC5)CN(C(=O)C5(c7ccccc7)CCN(c7cnnc(-c8ccccc8O)c7)CC5)C6)CC4)C3)cc2)C(=O)N1` (racemic) [Example 152, rac-(3R)-3-(4-{9-[2-(2-{1-[6-(2-hydroxyphenyl)pyridazin-4-yl]-4-phenylpiperidine-4-carbonyl}-2,7-diazaspiro[3.5]nonan-7-yl)-2-oxoethyl]-1-oxa-4,9-diazaspiro[5.5]undecan-4-yl}phenyl)piperidine-2,6-dione], for which the Dmax at SMARCA4 turned out to be 45.4%. Besides, at SMARCA2, the DC50 was found to be 68.2 nM, the Dmax was 66.5% and the “Fold Selectivity SMARCA4/2” value was determined as 147.
At SMARCA4, `CN(C(=O)C1(c2ccccc2)CCN(c2cnnc(-c3ccccc3O)c2)CC1)C1CCN(CC2CCN(c3ccc([C@H]4CCC(=O)NC4=O)cc3)CC2)C2(CCCCC2)C1` (mixture of isomers) [Example 153, N-[(4RS)-1-[(1-{4-[(3R)-2,6-dioxopiperidin-3-yl]phenyl}piperidin-4-yl)methyl]-1-azaspiro[5.5]undecan-4-yl]-1-[6-(2-hydroxyphenyl)pyridazin-4-yl]-N-methyl-4-phenylpiperidine-4-carboxamide] displayed a DC50 of 47.5 nM and a Dmax of 86.2%. On SMARCA2, it took 10.3 nM to reach half-maximal degradation (DC50), the Dmax is 92.2% and the “Fold Selectivity SMARCA4/2” value came to 5.
On the same counts, the results for `Cn1c(=O)n(C2CCC(=O)NC2=O)c2ccc(N3CCC(CN4CCC(NC(=O)C5(c6ccccc6)CCN(c6cnnc(-c7ccccc7O)c6)CC5)CC4)CC3)cc21` (racemic) [Example 158, rac-N-{1-[(1-{1-[(3R)-2,6-dioxopiperidin-3-yl]-3-methyl-2-oxo-2,3-dihydro-1H-1,3-benzodiazol-5-yl}piperidin-4-yl)methyl]piperidin-4-yl}-1-[6-(2-hydroxyphenyl)pyridazin-4-yl]-4-phenylpiperidine-4-carboxamide] are 1.36 nM, 88.5%, 0.44 nM, 92% and 3.
Consider `Cn1c(=O)n(C2CCC(=O)NC2=O)c2ccc(N3CCC(CN4CCC5(CC4)CN(C(=O)C4(c6ccccc6)CCN(c6cnnc(-c7ccccc7O)c6)CC4)C5)CC3)cc21` (racemic) [Example 159, rac-(3R)-3-(5-{4-[(2-{1-[6-(2-hydroxyphenyl)pyridazin-4-yl]-4-phenylpiperidine-4-carbonyl}-2,7-diazaspiro[3.5]nonan-7-yl)methyl]piperidin-1-yl}-3-methyl-2-oxo-2,3-dihydro-1H-1,3-benzodiazol-1-yl)piperidine-2,6-dione], for which, on SMARCA4, it took 1.45 nM to reach half-maximal degradation (DC50) and the greatest degradation seen (Dmax) came out at 82.2%. On SMARCA2, the DC50 was 0.38 nM, the Dmax was 89.5% and the “Fold Selectivity SMARCA4/2” value came to 4.
On SMARCA4, `O=C1CCC(c2ccc(N3C[C@@H]4CN(CC5CCN(C(=O)C6(c7ccccc7)CCN(c7cnnc(-c8ccccc8O)c7)CC6)CC5)C[C@H]4C3)cc2)C(=O)N1` (mixture of isomers) [Example 160, (3RS)-3-{4-[(3aS,6aS)-5-[(1-{1-[6-(2-hydroxyphenyl)pyridazin-4-yl]-4-phenylpiperidine-4-carbonyl}piperidin-4-yl)methyl]-octahydropyrrolo[3,4-c]pyrrol-2-yl]phenyl}piperidine-2,6-dione] returned a DC50 of 104 nM and a Dmax of 71.4%. Besides, on SMARCA2, the DC50 stood at 12 nM, the Dmax came to 87.7% and the “Fold Selectivity SMARCA4/2” value turned out to be 9.

By DC50 is commonly meant the midpoint of the concentration-degradation curve. The term Dmax denotes the greatest extent of degradation seen.
